Results on 1 compound are retold here after patent EP3858357A1, “USE OF AZOLE COMPOUNDS TO STIMULATE THE IMMUNE SYSTEM AND AS INHIBITORS FOR S-PLA2GIB” (Diaccurate, priority 2020, dated 2021).

Some results are limits rather than exact numbers.

For one assay, the target named is sPLA2hGV (Homo sapiens, UniProt P39877). The experiment in a line: Inhibition of sPLA2hGV enzymatic activity (method of Rouault et al., 2006). Type of assay: biochemical. The note with it: 3-300 µM tested; Figure 2B.
The next assay concerns the target sPLA2hGIB (Homo sapiens, UniProt P04054). The experiment in a line: Inhibition of sPLA2hGIB enzymatic activity, [3H]oleate-labelled E. coli membranes (method of Rouault et al., 2006). The format is biochemical. The note with it: sPLA2hGIB (2 pM) pre-incubated with 10, 30, 100, 300 µM; Figure 2A. An excerpt: (§1) • Figure 1: Screening of the inhibition of sPLA2hGIB enzymatic activity by small molecules previously identified by in silico screening. 0% represents non-specific hydrolysis in the absence of sPLA2hGIB, and 100 % represents sPLA2hGIB activity with DMSO (1 %). […] The condition 'no hGIB' (0%) represents the non-specific hydrolysis of phospholipids present in E. coli membranes radio-labeled with [^3H]oleate. […] HA-tagged receptors are in the presence of sPLA2hGIB or sPLA2hGIIF, then in the presence of a specific biotinylated anti-sPLA2 antibody; "acceptor" beads are coupled to an anti-HA antibody (PerkinElmer) and "donor" beads are coupled to Streptavidine (PerkinElmer).
The condition 'no hGIB' (0%) represents the non-specific hydrolysis of phospholipids present in E. coli membranes radio-labeled with [^3H]oleate.

For another assay, the target named is T1, sPLA2hGIIA (Homo sapiens, UniProt P14555).
T1 sequence (P14555 21-144): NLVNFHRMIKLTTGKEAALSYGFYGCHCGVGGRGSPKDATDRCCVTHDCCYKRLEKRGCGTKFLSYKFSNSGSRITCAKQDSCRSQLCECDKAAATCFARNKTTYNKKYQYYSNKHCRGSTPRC
The experiment in a line: Inhibition of sPLA2hGIIA enzymatic activity (method of Rouault et al., 2006). Type of assay: biochemical. The note with it: 3-300 µM tested; Figure 2B.

For another assay, the target named is T2, sPLA2hGX (Homo sapiens, UniProt O15496).
T2 sequence (O15496 43-165): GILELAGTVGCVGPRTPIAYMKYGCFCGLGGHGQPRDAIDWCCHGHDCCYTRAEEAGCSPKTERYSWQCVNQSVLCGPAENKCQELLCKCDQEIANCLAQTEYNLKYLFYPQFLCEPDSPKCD
The experiment in a line: Inhibition of sPLA2hGX enzymatic activity (method of Rouault et al., 2006). Type of assay: biochemical. To be noted: 3-300 µM tested; Figure 2B.

Assay [1] addresses binding between mPLA2R1 receptor and sPLA2hGIB (Homo sapiens, UniProt P04054). The experiment in a line: AlphaLISA-based competition test of sPLA2hGIB binding to soluble HA-tagged mPLA2R1. The note with it: decrease of binding between mPLA2R1 and sPLA2hGIB; Figure 3B.
Source text: as §1
The inventors have developed and used an AlphaLISA®-based test (Figure 3A) capable of detecting binding between the soluble form of mPLA2R1 (which includes the whole extracellular part), and sPLA2hGIB. […]
HA-tagged receptors are in the presence of sPLA2 of interest, then in the presence of a specific biotinylated anti-sPLA2 antibody; "acceptor" beads are coupled to an anti-HA antibody (PerkinElmer) and "donor" beads are coupled to Streptavidine (PerkinElmer). The binding of a HA-tagged receptor and a sPLA2 of interest in solution, results in a proximity of donor and acceptor beads, allowing for energy transfer and the production of a light signal, which is then measured.
For orientation: Bead proximity is the source of the signal in Alpha formats.

Chain of sPLA2hGV (P39877 21-138): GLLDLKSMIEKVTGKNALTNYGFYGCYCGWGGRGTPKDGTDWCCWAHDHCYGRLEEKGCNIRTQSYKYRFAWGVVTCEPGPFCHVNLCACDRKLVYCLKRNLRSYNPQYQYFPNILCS
Chain of binding between mPLA2R1 receptor and sPLA2hGIB (P04054 23-148): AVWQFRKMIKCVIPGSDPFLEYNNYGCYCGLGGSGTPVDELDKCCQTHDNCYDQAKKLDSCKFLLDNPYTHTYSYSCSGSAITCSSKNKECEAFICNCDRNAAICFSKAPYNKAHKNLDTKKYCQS
Chain of sPLA2hGIB (P04054 23-148): as above

As for `CC(C)N1CCN(c2ccc(OCC3COC(Cn4cncn4)(c4ccc(Cl)cc4Cl)O3)cc2)CC1` [Terconazole, 1-{[(2S,4S)-2-(2,4-dichlorophenyl)-4-{[p-(4-isopropyl-1-piperazinyl)phenoxy]methyl}-1,3-dioxolan-2-yl]methyl}-1H-1,2,4-azole], the concentration for half-maximal inhibition (IC50) (as a rule, the concentration needed to halve the response being measured) at sPLA2hGV is over 300 µM; at sPLA2hGIB, 100 to 150 µM; at sPLA2hGIIA, over 300 µM; on sPLA2hGX, about 150 µM; in assay [1] it was about 100 µM.
